# From ChEMBL document CHEMBL1275577, “Study of the in vitro activities of rifaximin and comparator agents against 536 anaerobic intestinal bacteria from the perspective of potential utility in pathology involving bowel flora” (Antimicrob Agents Chemother, 2009)
# Tests used:
# Type in all cases: functional
# [1] = test system: Fusobacterium necrophorum; assay: Antimicrobial activity against Fusobacterium necrophorum by Wadsworth agar dilution method in presence of beta-lactamase inhibitor Sulbactam
# [2] = test system: Coprobacillus cateniformis; assay: Antimicrobial activity against Coprobacillus cateniformis by Wadsworth agar dilution method in presence of beta-lactamase inhibitor Sulbactam
# Clostridium fallax = assay: Antimicrobial activity against Clostridium fallax by Wadsworth agar dilution method in presence of beta-lactamase inhibitor Sulbactam
# Clostridium beijerinckii = assay: Antimicrobial activity against Clostridium beijerinckii by Wadsworth agar dilution method in presence of beta-lactamase inhibitor Sulbactam
# [3] = test system: Desulfovibrio fairfieldensis; assay: Antimicrobial activity against Desulfovibrio fairfieldensis by Wadsworth agar dilution method in presence of beta-lactamase inhibitor Sulbactam
# [4] = test system: Clostridium paraputrificum; assay: Antimicrobial activity against Clostridium paraputrificum by Wadsworth agar dilution method in presence of beta-lactamase inhibitor Sulbactam
# Parabacteroides merdae = assay: Antimicrobial activity against Parabacteroides merdae by Wadsworth agar dilution method in presence of beta-lactamase inhibitor Sulbactam
# [5] = test system: Ruminococcus flavefaciens; assay: Antimicrobial activity against Ruminococcus flavefaciens by Wadsworth agar dilution method in presence of beta-lactamase inhibitor Sulbactam
# [6] = test system: Lacticaseibacillus rhamnosus; assay: Antimicrobial activity against Lactobacillus rhamnosus by Wadsworth agar dilution method in presence of beta-lactamase inhibitor Sulbactam
# Bacteroides stercoris = assay: Antimicrobial activity against Bacteroides stercoris by Wadsworth agar dilution method in presence of beta-lactamase inhibitor Sulbactam
# [7] = test system: Catenibacterium mitsuokai; assay: Antimicrobial activity against Catenibacterium mitsuokai by Wadsworth agar dilution method in presence of beta-lactamase inhibitor Sulbactam
# [8] = test system: Porphyromonas asaccharolytica; assay: Antimicrobial activity against Porphyromonas asaccharolyticus by Wadsworth agar dilution method in presence of beta-lactamase inhibitor Sulbactam
# Eubacterium biforme = assay: Antimicrobial activity against Eubacterium biforme by Wadsworth agar dilution method in presence of beta-lactamase inhibitor Sulbactam; conditions: Holdemanella biformis
# Bilophila wadsworthia = assay: Antimicrobial activity against Bilophila wadsworthia by Wadsworth agar dilution method in presence of 1% pyruvic acid and beta-lactamase inhibitor Sulbactam
# Clostridium tertium = assay: Antimicrobial activity against Clostridium tertium by Wadsworth agar dilution method in presence of beta-lactamase inhibitor Sulbactam
# [Clostridium] innocuum = Antimicrobial activity against Clostridium innocuum by Wadsworth agar dilution method in presence of beta-lactamase inhibitor Sulbactam
# Fusobacterium mortiferum = assay: Antimicrobial activity against Clostridium rectum by Wadsworth agar dilution method in presence of beta-lactamase inhibitor Sulbactam
# Propionibacterium avidum = assay: Antimicrobial activity against Propionibacterium avidum by Wadsworth agar dilution method in presence of beta-lactamase inhibitor Sulbactam; conditions: Cutibacterium avidum
# Anaerococcus tetradius = assay: Antimicrobial activity against Anaerococcus tetradius by Wadsworth agar dilution method in presence of beta-lactamase inhibitor Sulbactam
# Blautia producta = assay: Antimicrobial activity against Ruminococcus productus by Wadsworth agar dilution method in presence of beta-lactamase inhibitor Sulbactam
# Blautia luti = assay: Antimicrobial activity against Ruminococcus luti by Wadsworth agar dilution method in presence of beta-lactamase inhibitor Sulbactam
# Bifidobacterium dentium = assay: Antimicrobial activity against Bifidobacterium dentium by Wadsworth agar dilution method in presence of beta-lactamase inhibitor Sulbactam
# Clostridium leptum = assay: Antimicrobial activity against Clostridium leptum by Wadsworth agar dilution method in presence of beta-lactamase inhibitor Sulbactam
# Ruminococcus obeum = assay: Antimicrobial activity against Ruminococcus obeum by Wadsworth agar dilution method in presence of beta-lactamase inhibitor Sulbactam; conditions: Blautia obeum
# Peptoniphilus harei = assay: Antimicrobial activity against Peptoniphilus harei by Wadsworth agar dilution method in presence of beta-lactamase inhibitor Sulbactam
# Collinsella aerofaciens = assay: Antimicrobial activity against Colinsella aerofaciens by Wadsworth agar dilution method in presence of beta-lactamase inhibitor Sulbactam
# Eubacterium callanderi = assay: Antimicrobial activity against Eubacterium callanderi by Wadsworth agar dilution method in presence of beta-lactamase inhibitor Sulbactam
# [9] = test system: Desulfovibrio desulfuricans; assay: Antimicrobial activity against Desulfovibrio desulfuricans by Wadsworth agar dilution method in presence of beta-lactamase inhibitor Sulbactam
# Hoylesella loescheii = assay: Antimicrobial activity against Prevotella loescheii by Wadsworth agar dilution method in presence of beta-lactamase inhibitor Sulbactam
# Ruminococcus lactaris = assay: Antimicrobial activity against Ruminococcus lactaris by Wadsworth agar dilution method in presence of beta-lactamase inhibitor Sulbactam
# Clostridium glycolicum = assay: Antimicrobial activity against Clostridium glycolicum by Wadsworth agar dilution method in presence of beta-lactamase inhibitor Sulbactam; conditions: Terrisporobacter glycolicus
# Clostridium nexile = assay: Antimicrobial activity against Clostridium nexile by Wadsworth agar dilution method in presence of beta-lactamase inhibitor Sulbactam; conditions: Faecalimonas nexilis
# [10] = test system: Clostridium acetobutylicum; assay: Antimicrobial activity against Clostridium acetobutylicum by Wadsworth agar dilution method in presence of beta-lactamase inhibitor Sulbactam
# Prevotella disiens = assay: Antimicrobial activity against Prevotella disiens by Wadsworth agar dilution method in presence of beta-lactamase inhibitor Sulbactam
smiles,measurement,setting,value
CC1(C)S[C@@H]2[C@H](NC(=O)[C@H](N)c3ccccc3)C(=O)N2[C@H]1C(=O)O [AMPICILLIN],MIC50,[1],1 mg/L
same,MIC90,[1],4 mg/L
same,MIC,[2],0.25 mg/L
same,MIC50,[2],0.25 mg/L
same,MIC90,[2],2 mg/L
same,MIC,Clostridium fallax,0.25 mg/L
same,MIC50,Clostridium fallax,0.25 mg/L
same,MIC90,Clostridium fallax,1 mg/L
same,MIC,Clostridium beijerinckii,0.25 mg/L
same,MIC50,Clostridium beijerinckii,0.25 mg/L
same,MIC90,Clostridium beijerinckii,1 mg/L
same,MIC50,[3],4 mg/L
same,MIC90,[3],32 mg/L
same,MIC,[4],0.25 mg/L
same,MIC50,[4],0.25 mg/L
same,MIC90,[4],1 mg/L
same,MIC50,Parabacteroides merdae,16 mg/L
same,MIC90,Parabacteroides merdae,32 mg/L
same,MIC,[5],0.25 mg/L
same,MIC50,[5],0.25 mg/L
same,MIC90,[5],2 mg/L
same,MIC,[6],0.25 mg/L
same,MIC50,[6],0.25 mg/L
same,MIC90,[6],2 mg/L
same,MIC50,Bacteroides stercoris,2 mg/L
same,MIC90,Bacteroides stercoris,16 mg/L
same,MIC,[7],0.25 mg/L
same,MIC50,[7],0.25 mg/L
same,MIC90,[7],2 mg/L
same,MIC,[8],0.25 mg/L
same,MIC50,[8],0.25 mg/L
same,MIC90,[8],0.5 mg/L
same,MIC,Eubacterium biforme,0.25 mg/L
same,MIC50,Eubacterium biforme,0.25 mg/L
same,MIC90,Eubacterium biforme,2 mg/L
same,MIC50,Bilophila wadsworthia,2 mg/L
same,MIC90,Bilophila wadsworthia,16 mg/L
same,MIC,Clostridium tertium,0.25 mg/L
same,MIC50,Clostridium tertium,0.25 mg/L
same,MIC90,Clostridium tertium,1 mg/L
same,MIC,[Clostridium] innocuum,0.25 mg/L
same,MIC50,[Clostridium] innocuum,0.25 mg/L
same,MIC90,[Clostridium] innocuum,0.5 mg/L
same,MIC,Fusobacterium mortiferum,0.25 mg/L
same,MIC50,Fusobacterium mortiferum,0.25 mg/L
same,MIC90,Fusobacterium mortiferum,1 mg/L
same,MIC,Propionibacterium avidum,0.25 mg/L
same,MIC50,Propionibacterium avidum,0.25 mg/L
same,MIC90,Propionibacterium avidum,2 mg/L
same,MIC,Anaerococcus tetradius,0.25 mg/L
same,MIC50,Anaerococcus tetradius,0.25 mg/L
same,MIC90,Anaerococcus tetradius,2 mg/L
same,MIC,Blautia producta,0.25 mg/L
same,MIC50,Blautia producta,0.25 mg/L
same,MIC90,Blautia producta,2 mg/L
same,MIC,Blautia luti,0.25 mg/L
same,MIC50,Blautia luti,0.25 mg/L
same,MIC90,Blautia luti,2 mg/L
same,MIC,Bifidobacterium dentium,0.25 mg/L
same,MIC50,Bifidobacterium dentium,0.25 mg/L
same,MIC90,Bifidobacterium dentium,2 mg/L
same,MIC,Clostridium leptum,0.25 mg/L
same,MIC50,Clostridium leptum,0.25 mg/L
same,MIC90,Clostridium leptum,1 mg/L
same,MIC,Ruminococcus obeum,0.25 mg/L
same,MIC50,Ruminococcus obeum,0.25 mg/L
same,MIC90,Ruminococcus obeum,2 mg/L
same,MIC,Peptoniphilus harei,0.25 mg/L
same,MIC50,Peptoniphilus harei,0.25 mg/L
same,MIC90,Peptoniphilus harei,2 mg/L
same,MIC,Collinsella aerofaciens,0.25 mg/L
same,MIC50,Collinsella aerofaciens,0.25 mg/L
same,MIC90,Collinsella aerofaciens,2 mg/L
same,MIC,Eubacterium callanderi,0.25 mg/L
same,MIC50,Eubacterium callanderi,0.25 mg/L
same,MIC90,Eubacterium callanderi,2 mg/L
same,MIC50,[9],8 mg/L
same,MIC90,[9],8 mg/L
same,MIC50,Hoylesella loescheii,0.5 mg/L
same,MIC90,Hoylesella loescheii,4 mg/L
same,MIC,Ruminococcus lactaris,0.25 mg/L
same,MIC50,Ruminococcus lactaris,0.25 mg/L
same,MIC90,Ruminococcus lactaris,2 mg/L
same,MIC,Clostridium glycolicum,0.25 mg/L
same,MIC50,Clostridium glycolicum,0.25 mg/L
same,MIC90,Clostridium glycolicum,1 mg/L
same,MIC,Clostridium nexile,0.25 mg/L
same,MIC50,Clostridium nexile,0.25 mg/L
same,MIC90,Clostridium nexile,1 mg/L
same,MIC,[10],0.25 mg/L
same,MIC50,[10],0.25 mg/L
same,MIC90,[10],1 mg/L
same,MIC50,Prevotella disiens,0.5 mg/L
same,MIC90,Prevotella disiens,4 mg/L
